These results are taken from US5834461A, “Tricyclic benzazepine vasopressin antagonists” (American Cyanamid Company, priority 1997, dated 1998).

T1 sequence (P37288 whole entry): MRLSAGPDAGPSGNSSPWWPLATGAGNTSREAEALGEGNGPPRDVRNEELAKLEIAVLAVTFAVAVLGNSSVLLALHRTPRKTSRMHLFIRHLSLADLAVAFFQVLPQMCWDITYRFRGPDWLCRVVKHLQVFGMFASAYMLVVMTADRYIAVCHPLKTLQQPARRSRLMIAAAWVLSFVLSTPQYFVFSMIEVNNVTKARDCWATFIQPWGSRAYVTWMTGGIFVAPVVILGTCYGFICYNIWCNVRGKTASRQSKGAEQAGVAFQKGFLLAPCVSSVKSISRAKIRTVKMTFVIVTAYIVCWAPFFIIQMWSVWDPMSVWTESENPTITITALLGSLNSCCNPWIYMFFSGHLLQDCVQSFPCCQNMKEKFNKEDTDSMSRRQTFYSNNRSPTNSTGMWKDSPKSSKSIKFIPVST

The first assay addresses T1, vasopressin V1 receptor subtype in human platelet membranes (Homo sapiens, UniProt P37288).
T1 construct: tissue Hudson Valley Blood Services; host or cells: human blood platelets (frozen platelet rich plasma)
Description: Binding to Vasopressin V1 Receptor Subtype in Human Platelet Membranes. The following applies: 1.5 h; 10 μM; human platelet (*); read-out: *V1, % at concentration in brackets. The method, then:
(a) Platelet Membrane Preparation:
Frozen platelet rich plasma (PRP), received from the Hudson Valley Blood Services, are thawed to room temperature. (Platelet Source: Hudson Valley Blood Services, Westchester Medical Center, Valhalla, N.Y.). The tubes containing the PRP are centrifuged at 16,000×g for 10 min. at 4° C. and the supernatant fluid discarded. The platelets resuspended in an equal volume of 50.0 mM Tris.HCl, pH 7.5 containing 120 mM NaCl and 20.0 mM EDTA. The suspension is recentrifuged at 16,000×g for 10 min. This washing step is repeated one more time. The wash discarded and the lysed pellets homogenized in low ionic strength buffer of Tris.HCl, 5.0 mM, pH 7.5 containing 5.0 mM EDTA. The homogenate is centrifuged at 39,000×g for 10 min. The resulting pellet is resuspended in Tris.HCl buffer, 70.0 mM, pH 7.5 and recentrifuged at 39,000×g for 10 min. The final pellet is resuspended in 50.0 mM Tris.HCl buffer pH 7.4 containing 120 mM NaCl and 5.0 mM KCl to give 1.0-2.0 mg protein per ml of suspension.
(b) Binding to Vasopressin V1 Receptor Subtype in Human Platelet Membranes:
In wells of a 96 well format microtiter plate, add 100 μl of 50.0 mM Tris.HCl buffer containing 0.2% BSA and a mixture of protease inhibitors (aprotinin, leupeptin etc.). Then add 20 μl of [^3 H]Ligand (Manning or Arg^8 Vasopressin), to give final concentrations ranging from 0.01 to 10.0 nM. Initiate the binding by adding 80.0 μl of platelet suspension (approx. 100 μg protein). Mix all reagents by pipetting the mixture up and down a few times. Non specific binding is measured in the presence of 1.0 μM of unlabeled ligand (Manning or Arg^8 Vasopressin). Let the mixture stand undisturbed at room temperature for ninety (90) min. Upon this time, rapidly filter off the incubate under vacuum suction over GF/B filters, using a Brandel Harvester. The radioactivity caught on the filter disks is determined by the addition of liquid scintillant and counting in a liquid scintillator.
For `CC(C)COc1ccc([N+](=O)[O-])cc1C(=O)Nc1ccc(C(=O)N2Cc3ccccc3Cc3ccccc32)cc1` [Example 453], the inhibition at 10 µM came to 14%.

Staying with this assay, now noted: human platelet V1 (*).
A word on the IC50: it is the point on the concentration scale where inhibition reaches its midpoint. With `Cc1nc2c(s1)CCN(C(=O)c1ccc(NC(=O)c3ccc(Cl)cc3Cl)cc1)c1ccccc1-2` [Example 455, N-[4-(4,5-Dihydro-2-methyl-6H-thiazolo[5,4-d][1]-benzazepin-6-yl)carbonyl1phenyl]-2,4-dichlorobenzamide], the IC50 came out at 250 nM.

With `COc1cc(C(=O)N2Cc3ccccc3Cc3ccccc32)ccc1NC(=O)c1ccccc1C` [Example 257, N-[4-[(6,11-Dihydro-5H-dibenz[b,e]azepin-5-yl)-carbonyl]-2-methoxyphenyl]-2-methylbenzamide], the half-maximal inhibitory concentration (IC50) turned out to be 16 nM.

Take `Cc1ccc(F)cc1C(=O)Nc1ccc(C(=O)N2CCc3c[nH]nc3-c3ccccc32)c(Cl)c1` [Example 581]: the half-maximal inhibitory concentration (IC50) worked out at 150 nM.

In the case of `COc1cc(C(=O)N2Cc3ccccc3Cc3ccccc32)ccc1NC(=O)c1cc(F)ccc1C` [Example 261, N-[4-[(6,11-Dihydro-5H-dibenz[b,e]azepin-5-yl)-carbonyl]-2-methoxyphenyl]-2-methyl-5-fluorobenzamide], the IC50 stood at 21 nM.

In the case of `Cc1nc2c(s1)CCN(C(=O)c1ccc(NC(=O)c3cc(F)ccc3C)cc1)c1ccccc1-2` [Example 534], the IC50 is 90 nM.

As for `Cc1ccc(F)cc1C(=O)Nc1ccc(C(=O)N2CCc3c[nH]nc3-c3ccccc32)cc1` [Example 584, N-[4-[(4.5-Dihydropyrazolo[4,3-d][1]benzazepin-6(2H)-yl)carbonyl]phenyl]-5-fluoro-2-methylbenzamide], the half-inhibitory concentration (IC50) came out at 28 nM.

Take `COc1cc(C(=O)N2Cc3ccccc3Cc3ccccc32)ccc1NC(=O)c1ccc(Cl)cc1Cl` [Example 263, N-[4-[(6,11-Dihydro-5H-dibenz[b,e]azepin-5-yl)-carbonyl]-2-methoxyphenyl]-2,4-dichlorobenzamide]: the IC50 was 430 nM.

Compound `Cc1c(F)cccc1C(=O)Nc1ccc(C(=O)N2Cc3ccccc3Cc3ccccc32)cc1Cl` [Example 262, N-[4-[(6,11-Dihydro-5H-dibenz[b,e]azepin-5-yl)-carbonyl]-2-chlorophenyl]-2-methyl-3-fluorobenzamide] returned a half-maximal inhibitory concentration (IC50) of 620 nM.
